20 compounds from US8993561B2, “Nitrobenzothiazole derivatives, preparation thereof and therapeutic applications thereof” (Sanofi, priority 2010, dated 2015) can be followed below.

Usually melting point stands for the temperature, or range, at which the solid turns liquid.

Converted amounts (≈) assume the structure as drawn.

The test system of one data set is Mycobacterium tuberculosis H37Rv strain. Description: Alamar blue (MABA) test, MIC on Mycobacterium tuberculosis H37Rv. It is filed as cell-based. The note with it: H37RV, read-out: fluorimetric MIC (minimum inhibitory concentration) with respect to the growth of Mycobacterium tuberculosis.
With `O=C(NCCc1cccc(Cl)c1)c1nc2cc(C(F)(F)F)cc([N+](=O)[O-])c2s1` [Compound 16, N-[2-(3-chlorophenyl)-ethyl]-7-nitro-5-(trifluoromethyl)-1,3-benzothiazole-2-carboxamide], the MIC is below 0.5 µM.
On the same count and under the same terms, the figure for `O=C(NCCc1ccccc1O)c1nc2cc(C(F)(F)F)cc([N+](=O)[O-])c2s1` [Compound 17, N-[2-(2-hydroxyphenyl)ethyl]-7-nitro-5-(trifluoromethyl)-1,3-benzothiazole-2-carboxamide] is below 0.5 µM; for `O=C(NCCc1ccc(O)cc1)c1nc2cc(C(F)(F)F)cc([N+](=O)[O-])c2s1` [Compound 18, N-[2-(4-hydroxyphenyl)ethyl]-7-nitro-5-(trifluoromethyl)-1,3-benzothiazole-2-carboxamide] it is below 0.5 µM; for `O=C(NCCc1nc2ccccc2o1)c1nc2cc(C(F)(F)F)cc([N+](=O)[O-])c2s1` [Compound 38, N-[2-(1,3-benzoxazol-2-yl)ethyl]-7-nitro-5-(trifluoromethyl)-1,3-benzothiazole-2-carboxamide] it is below 0.5 µM.

The data set is the same for the next values; noted with them: in vitro, Alamar blue (MABA), H37Rv strain, fluorescence reading, read-out: fluorimetric MIC (minimum inhibitory concentration) with respect to the growth of Mycobacterium tuberculosis.
As for `O=C(NCCC1CCOCC1)c1nc2cc(C(F)(F)F)cc([N+](=O)[O-])c2s1` [Compound 2, 7-nitro-N-[2-(tetrahydro-2H-pyran-4-yl)ethyl]-5-(trifluoromethyl)-1,3-benzothiazole-2-carboxamide], the MIC was below 0.5 µM.
Still for that read-out and setting: to `COc1ccc(CCNC(=O)c2nc3cc(C(F)(F)F)cc([N+](=O)[O-])c3s2)cc1` [Compound 7, N-[2-(4-methoxyphenyl)ethyl]-7-nitro-5-(trifluoromethyl)-1,3-benzothiazole-2-carboxamide] belongs below 0.5 µM; to `O=C(NCCN1CCc2ccccc2C1)c1nc2cc(C(F)(F)F)cc([N+](=O)[O-])c2s1` [Compound 9, N-[2-(1,2,3,4-tetrahydroisoquinolin-2(1H)-yl)ethyl]-7-nitro-5-(trifluoromethyl)-1,3-benzothiazole-2-carboxamide], below 0.5 µM.
Still for that read-out and setting: the figure for `O=C(NCCc1ccc(F)cc1)c1nc2cc(C(F)(F)F)cc([N+](=O)[O-])c2s1` [Compound 14, N-[2-(4-fluorophenyl)ethyl]-7-nitro-5-(trifluoromethyl)-1,3-benzothiazole-2-carboxamide] is below 0.5 µM.
Turning to `COc1ccc(CCNC(=O)c2nc3cc(C(F)(F)F)cc([N+](=O)[O-])c3s2)cc1OC` [Compound 15, N-[2-(3,4-dimethoxyphenyl)ethyl]-7-nitro-5-(trifluoromethyl)-1,3-benzothiazole-2-carboxamide], the MIC is below 0.5 µM.
Still for that read-out and setting: to `O=C(NCCNc1ccccn1)c1nc2cc(C(F)(F)F)cc([N+](=O)[O-])c2s1` [Compound 21, 7-nitro-N-[2-(pyridin-2-ylamino)ethyl]-5-(trifluoromethyl)-1,3-benzothiazole-2-carboxamide] belongs below 0.5 µM; to `O=C(NCCN1CCSCC1)c1nc2cc(C(F)(F)F)cc([N+](=O)[O-])c2s1` [Compound 22, 7-nitro-N-[2-thiomorpholin-4-ylethyl)-5-(trifluoromethyl)-1,3-benzothiazole-2-carboxamide], below 0.5 µM; to `Cc1cccnc1CCNC(=O)c1nc2cc(C(F)(F)F)cc([N+](=O)[O-])c2s1` [Compound 25, N-[2-(3-methylpyridin-2-yl)ethyl]-7-nitro-5-(trifluoromethyl)-1,3-benzothiazole-2-carboxamide], below 0.5 µM.
Same read-out and setting: the figure for `O=C(NCC(c1ccccc1)N1CCOCC1)c1nc2cc(C(F)(F)F)cc([N+](=O)[O-])c2s1` (stereo not drawn) [Compound 26, N-(2-morpholin-4-yl-2-phenylethyl)-7-nitro-5-(trifluoromethyl)-1,3-benzothiazole-2-carboxamide] is below 0.5 µM; for `CC1(C)CC(CCNC(=O)c2nc3cc(C(F)(F)F)cc([N+](=O)[O-])c3s2)(c2ccccc2)CCO1` (stereo not drawn) [Compound 27, N-[2-(2,2-dimethyl-4-phenyltetrahydro-2H-pyran-4-yl)ethyl]-7-nitro-5-(trifluoromethyl)-1,3-benzothiazole-2-carboxamide] it is below 0.5 µM; for `Cc1nc(CCNC(=O)c2nc3cc(C(F)(F)F)cc([N+](=O)[O-])c3s2)sc1Cl` [Compound 36, N-[2-(5-chloro-4-methyl-1,3-thiazol-2-yl)ethyl]-7-nitro-5-(trifluoromethyl)-1,3-benzothiazole-2-carboxamide] it is below 0.5 µM.
For `CCc1csc(CCNC(=O)c2nc3cc(C(F)(F)F)cc([N+](=O)[O-])c3s2)n1` [Compound 39, N-[2-(4-ethyl-1,3-thiazol-2-yl)ethyl]-7-nitro-5-(trifluoromethyl)-1,3-benzothiazole-2-carboxamide], the MIC was below 0.5 µM.
As to `Cc1nc(CCNC(=O)c2nc3cc(C(F)(F)F)cc([N+](=O)[O-])c3s2)sc1C` [Compound 40, N-[2-(4,5-dimethyl-1,3-thiazol-2-yl)ethyl]-7-nitro-5-(trifluoromethyl)-1,3-benzothiazole-2-carboxamide], the MIC was below 0.5 µM.
Still for that read-out and setting: the figure for `NNC(=O)c1ccncc1` [isoniazid, reference compound] is 0.36 µM (≈ 0.0494 µg/mL); for `CO[C@H]1/C=C/O[C@@]2(C)Oc3c(C)c(O)c4c(O)c(c(/C=N/N5CCN(C)CC5)c(O)c4c3C2=O)NC(=O)/C(C)=C\C=C\[C@H](C)[C@H](O)[C@@H](C)[C@@H](O)[C@@H](C)[C@H](OC(C)=O)[C@@H]1C` [rifampicin, reference compound] it is 0.12 µM (≈ 0.0988 µg/mL).

Tested on in a further data set: not given
Assay: not given
Conditions: not given
`O=C(NCCc1ccc(Cl)cc1)c1nc2cc(C(F)(F)F)cc([N+](=O)[O-])c2s1` had a melting point of 140 °C.
The same measure, in the same setting: to `O=C(NCCC1CCOCC1)c1nc2cc(C(F)(F)F)cc([N+](=O)[O-])c2s1` [Compound 2, 7-nitro-N-[2-(tetrahydro-2H-pyran-4-yl)ethyl]-5-(trifluoromethyl)-1,3-benzothiazole-2-carboxamide] belongs 154 °C.
